Measured values from PubChem BioAssay AID2060511 (Molecular Pharmacology Branch, DTP, NCI, 2025).

Tested on: 422866-222-R5-J1-PDC spheroids with HUVEC/MSC, viability
Assay: Anticancer human tumor 422866-222-R5-J1-PDC patient-derived pancreatic adenocarcinoma cell line growth inhibition [GQUAD]
Conditions: for IC50: curve of first compound; for viability, T/C: stronger effect = lower value
In short: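 Multi-cell-type spheroids of tumor cells with HUVEC and mesenchymal stem cells, treated with drug combinations. Concentrations descend in half-log steps from near clinical Cmax, or from 10 microM where Cmax is unknown; viability read-out.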
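Note: spheroids exposed to compounds for seven days before reading.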
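Throughout, for viability, T/C: percent viability relative to DMSO vehicle control taken as 100%.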

## CC1COCCN1c1cc(-c2ccnn2C)c2ccnc(-c3ccn[nH]3)c2n1 (configuration not stated) + Cc1[nH]c2ccc(F)cc2c1-c1nc2c3cccnc3c3ncccc3c2[nH]1
Second compound 0.0316 µM
  IC50: > 10 µM
Second compound 0.1 µM
  IC50: > 10 µM
Second compound 0.316 µM
  IC50: > 10 µM
Second compound 1 µM
  IC50: 0.0316 µM
Second compound 3.16 µM
  IC50: 0.0316 µM
Second compound 10 µM
  IC50: 0.0316 µM
Second compound 0.0316 µM, first compound 0.0316 µM
  viability, T/C: 84.4%
Second compound 0.0316 µM, first compound 0.1 µM
  viability, T/C: 58.8%
Second compound 0.0316 µM, first compound 0.316 µM
  viability, T/C: 46.1%
Second compound 0.0316 µM, first compound 1 µM
  viability, T/C: 42%
Second compound 0.0316 µM, first compound 3.16 µM
  viability, T/C: 52.8%
Second compound 0.0316 µM, first compound 10 µM
  viability, T/C: 87.2%
Second compound 0.1 µM, first compound 0.0316 µM
  viability, T/C: 83.3%
Second compound 0.1 µM, first compound 0.1 µM
  viability, T/C: 64.9%
Second compound 0.1 µM, first compound 0.316 µM
  viability, T/C: 41.6%
Second compound 0.1 µM, first compound 1 µM
  viability, T/C: 33.7%
Second compound 0.1 µM, first compound 3.16 µM
  viability, T/C: 50%
Second compound 0.1 µM, first compound 10 µM
  viability, T/C: 93.7%
Second compound 0.316 µM, first compound 0.0316 µM
  viability, T/C: 101%
Second compound 0.316 µM, first compound 0.1 µM
  viability, T/C: 58.1%
Second compound 0.316 µM, first compound 0.316 µM
  viability, T/C: 45.3%
Second compound 0.316 µM, first compound 1 µM
  viability, T/C: 36.8%
Second compound 0.316 µM, first compound 3.16 µM
  viability, T/C: 66%
Second compound 0.316 µM, first compound 10 µM
  viability, T/C: 75%
Second compound 1 µM, first compound 0.0316 µM
  viability, T/C: 80.9%
Second compound 1 µM, first compound 0.1 µM
  viability, T/C: 51.9%
Second compound 1 µM, first compound 0.316 µM
  viability, T/C: 41.1%
Second compound 1 µM, first compound 1 µM
  viability, T/C: 37.5%
Second compound 1 µM, first compound 3.16 µM
  viability, T/C: 75.3%
Second compound 1 µM, first compound 10 µM
  viability, T/C: 86.6%
Second compound 3.16 µM, first compound 0.0316 µM
  viability, T/C: 60.6%
Second compound 3.16 µM, first compound 0.1 µM
  viability, T/C: 55.9%
Second compound 3.16 µM, first compound 0.316 µM
  viability, T/C: 41.5%
Second compound 3.16 µM, first compound 1 µM
  viability, T/C: 42.6%
Second compound 3.16 µM, first compound 3.16 µM
  viability, T/C: 73.2%
Second compound 3.16 µM, first compound 10 µM
  viability, T/C: 91.5%
Second compound 10 µM, first compound 0.0316 µM
  viability, T/C: 62.8%
Second compound 10 µM, first compound 0.1 µM
  viability, T/C: 57.8%
Second compound 10 µM, first compound 0.316 µM
  viability, T/C: 43.1%
Second compound 10 µM, first compound 1 µM
  viability, T/C: 47.1%
Second compound 10 µM, first compound 3.16 µM
  viability, T/C: 82.8%
Second compound 10 µM, first compound 10 µM
  viability, T/C: 84.2%
